Test results reported in PMC3721637 (Chemistry & biology, 2009).
No end group written: not given here. carboxyfluorescein = carboxyfluorescein N-terminal label

Tests used:
[1] = Biomarker dosing in rats following IFN-γ treatment, plasma level; type: in vivo, rat
[2] = biological target: recombinant soluble HLA-DQ2 heterodimer (thrombin-cleaved DQ2-αI-gliadin peptide complex) (human) (UniProt P01909); assay: SEC

LQLQPF (PQPHLPY)3PQPQPF [[^13C3]-HHH-33-mer]
IFN-γ-treated rats with biomarker detected in plasma ([1]; 20 mg oral gavage after 2 days i.v. IFN-γ, plasma 60 min, 3Q LC-MS/MS): one of four
plasma level in IFN-γ-treated animal relative to control animal ([1]; rats, oral biomarker, single animals with detectable plasma biomarker): ~ 10 fold

B1: fluorescein-conjugated EEE-33-mer (synthetically deamidated 33-mer from α2-gliadin) (peptide)
peptide: carboxyfluorescein-LQLQPFPQPELPYPQPELPYPQPELPYPQPQPF
percent of peptide bound [2]: > 80%

B2: fluorescein-conjugated NNN-33-mer biomarker (peptide)
peptide: carboxyfluorescein-LQLQPFPQPNLPYPQPNLPYPQPNLPYPQPQPF
fold by which EEE-33-mer binds more than this peptide [2]: 15.6 fold
